Assay [1] relates to Na^+,K^+ -ATPase. To be noted: J. Med. Chem. 1978, 21, 284; Quant. Struct.-Act. Relat. 1988, 7, 160; DE 4,227,605; DE 4,227,626; cited from earlier work.
The conditions of assay [2]: J. Med. Chem. 1978, 21, 284; Quant. Struct.-Act. Relat. 1988, 7, 160; cited from earlier work.
Assay [3] concerns the target T1, Na^+,K^+ -ATPase (Canis lupus familiaris, UniProt P50997).
T1 construct: Na^+,K^+ -ATPase receptor purified according to Jorghensen; from tissue
Briefly: displacement of the specific 3H-ouabain binding from the purified Na+,K+-ATPase receptor. To be noted: 3H-ouabain displacement, purified Na+,K+-ATPase; read-out: Binding ^3 H-Ouab. Displacement log IC50 (converted). The source says:
(§1) To test the affinity for the receptor site of the Na^+,K^+ -ATPase and the agonist or antagonist activity on the enzyme, the following tests were used:
a) displacement of the specific ^3 H-ouabain binding from the Na^+,K^+ -ATPase receptor purified according to Jorghensen (Jorghensen P., BBA. 1974, 356, 36) and Erdmann (Erdmann E. et al., Arzneim. Forsh., 1984, 34, 1314);

Assay [4] has as its target T1, Na^+,K^+ -ATPase. The assay is described as follows: inhibition of the activity of the purified Na+,K+-ATPase (% hydrolysis of 32P-ATP). In kind it is biochemical. To be noted: purified Na+,K+-ATPase, 32P-ATP hydrolysis; read-out: Inhibitory Activity log IC50 (converted).
Excerpt: as §1
b) inhibition of the activity of the purified Na^+,K^+ -ATPase measured as % of hydrolysis of ^32 P-ATP in presence and in absence of the tested compound (Doucet A. et al. Am. J. Physiol., 1986, 251, F851)

A short description of assay [5]: effect of 5 week-treatment on the development of hypertension in MHS rats (SBP and HR, tail cuff method). The format is in vivo, rat (MHS). To be noted: 10 mg/Kg/os daily in Methocel 0.5% w/v, 5 weeks, controls 375 +/- 7.3. The protocol: (§2) Systolic blood pressure (SBP) and heart rate (HR) were measured. by the tail cuff method, in young prehypertensive male rats (MHS or SHR) strains before the development of hypertension (4 weeks of age) for recording the basal values of SBP. Groups of 7 rats were formed and subdivided in control and treated groups. The compound, suspended in Methocel 0.5 % (w/v). was orally given daily for at least 5 weeks to the treated groups. The control group received only Methocel.
(§3) SBP and HR were measured weekly 6 and 24 hrs after treatment. After 5 weeks of treatment, when hypertension was fully developed in the control group (9 weeks of age), washout was started for at least one week, to verify whether the treatment maintained blood pressure low or reestablished the basal values. […] (Takeda K. et al., Japan J. Pharmacol., 1979, 29,171: Takeda K. et al. Japan J. Pharmacol., 1982, 32, 283; Richer C. et al. Eur. J. Pharmacol, 1978, 47,393).

The test system of assay [6] is spontaneous hypertensive rats (MHS). Described as above. The format is in vivo, rat (MHS). The conditions noted are these: 10 mg/Kg/os daily in Methocel 0.5% w/v, 5 weeks, controls 171 +/- 4.5. On the procedure: as §2, §3

As for `C[C@]12CC[C@H](O)C[C@H]1CC[C@@H]1[C@@H]2CC[C@]2(C)C(=NNC(=N)N)CC[C@]12O` [17-guanidinoimino-5β-androstane-3β,14β-diol], in the assay with Na^+,K^+ -ATPase [1], the “inhibition of Na+,K+-ATPase (in words)” value is given as “weak inhibitors of Na^+,K^+ -ATPase”. Moreover, in assay [2], the “positive inotropic activity (in words)” value was “weak positive inotropic agents”.
In the case of `C[C@]12CC[C@H](O)C[C@H]1CC[C@@H]1[C@@H]2CC[C@]2(C)[C@@H](C=NNC(=N)N)CC[C@]12O` [17β-guanidinoiminomethyl-5β-androstane-3β,14β-diol], the “inhibition of Na+,K+-ATPase (in words)” value with Na^+,K^+ -ATPase [1] is recorded as “weak inhibitors of Na^+,K^+ -ATPase”. Besides, the “positive inotropic activity (in words)” value in assay [2] was “weak positive inotropic agents”.
As usually defined, the IC50 is the midpoint of a concentration-inhibition curve. `CC(/C=N/NC(=N)N)=C\[C@H]1CC[C@]2(O)[C@@H]3CC[C@@H]4C[C@@H](O)CC[C@]4(C)[C@H]3CC[C@]12C` [Comp. I-aa, (E,E)-17β-(3-Guanidinoimino-2-methyl-1-propenyl)-5β-androstane-3β,14β-diol]: the IC50 at Na^+,K^+ -ATPase [3] was 0.0316 µM; at Na^+,K^+ -ATPase [4], 0.251 µM. In assay [5], the HR is on record as 374 +/- 9.5 beats/min. Also, the SBP in assay [6] is listed as 148 +/- 5.7 mm Hg.
As to `CC(/C=N/OCCN)=C\[C@H]1CC[C@]2(O)[C@@H]3CC[C@@H]4C[C@@H](O)CC[C@]4(C)[C@H]3CC[C@]12C` [Comp. I-af, (E,E)-17β-[3-(2-Aminoethoxyimino)-2-methyl-1-propenyl]-5β-androstone-3β,14β-diol], the IC50 on Na^+,K^+ -ATPase [3] was 0.02 µM; on Na^+,K^+ -ATPase [4] it was 0.0316 µM. Besides, the HR in assay [5] is recorded as 380 +/- 3.9 beats/min. Also, the SBP in assay [6] is listed as 146 +/- 6.1 mm Hg.
For the compound `CC(/C=N/NC(=N)N)=C\[C@H]1CC[C@]2(O)[C@@H]3CC[C@@H]4C[C@@H](OCCN)CC[C@]4(C)[C@H]3CC[C@]12C` [I-ax], the IC50 was 0.0251 µM on Na^+,K^+ -ATPase [3] and 0.0398 µM at Na^+,K^+ -ATPase [4].
